For assay [1], the target named is T1, Leukotriene A-4 hydrolase (Homo sapiens, UniProt P09960).
T1 sequence (P09960 whole entry): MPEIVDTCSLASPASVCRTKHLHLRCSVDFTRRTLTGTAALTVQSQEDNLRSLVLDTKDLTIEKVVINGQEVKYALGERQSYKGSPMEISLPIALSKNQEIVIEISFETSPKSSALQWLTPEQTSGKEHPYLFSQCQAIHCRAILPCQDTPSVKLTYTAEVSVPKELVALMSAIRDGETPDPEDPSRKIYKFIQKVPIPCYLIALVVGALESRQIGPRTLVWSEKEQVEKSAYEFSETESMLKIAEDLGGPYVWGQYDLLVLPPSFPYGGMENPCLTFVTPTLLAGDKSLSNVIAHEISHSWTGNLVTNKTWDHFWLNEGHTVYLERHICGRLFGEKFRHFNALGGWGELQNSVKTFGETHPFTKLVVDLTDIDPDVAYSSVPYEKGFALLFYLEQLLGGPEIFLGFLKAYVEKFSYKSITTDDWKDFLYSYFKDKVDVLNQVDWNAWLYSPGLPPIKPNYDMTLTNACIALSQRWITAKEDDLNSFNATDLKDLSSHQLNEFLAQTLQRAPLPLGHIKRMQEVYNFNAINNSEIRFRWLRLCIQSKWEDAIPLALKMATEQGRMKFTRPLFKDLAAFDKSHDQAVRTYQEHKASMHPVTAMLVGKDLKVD
Put plainly: Inhibition of (His)6 tagged human recombinant LTA4H expressed in Escherichia coli BL21(DE3) using non-fluorescent L-arginine-7-amino-4-methylcoumarine as substrate preincubated for 30 mins followed by substrate addition and measured for 30 mins by fluorescence based assay.

In assay [2] the target is T2, Bifunctional epoxide hydrolase 2 (Homo sapiens, UniProt P34913).
T2 sequence (P34913 whole entry): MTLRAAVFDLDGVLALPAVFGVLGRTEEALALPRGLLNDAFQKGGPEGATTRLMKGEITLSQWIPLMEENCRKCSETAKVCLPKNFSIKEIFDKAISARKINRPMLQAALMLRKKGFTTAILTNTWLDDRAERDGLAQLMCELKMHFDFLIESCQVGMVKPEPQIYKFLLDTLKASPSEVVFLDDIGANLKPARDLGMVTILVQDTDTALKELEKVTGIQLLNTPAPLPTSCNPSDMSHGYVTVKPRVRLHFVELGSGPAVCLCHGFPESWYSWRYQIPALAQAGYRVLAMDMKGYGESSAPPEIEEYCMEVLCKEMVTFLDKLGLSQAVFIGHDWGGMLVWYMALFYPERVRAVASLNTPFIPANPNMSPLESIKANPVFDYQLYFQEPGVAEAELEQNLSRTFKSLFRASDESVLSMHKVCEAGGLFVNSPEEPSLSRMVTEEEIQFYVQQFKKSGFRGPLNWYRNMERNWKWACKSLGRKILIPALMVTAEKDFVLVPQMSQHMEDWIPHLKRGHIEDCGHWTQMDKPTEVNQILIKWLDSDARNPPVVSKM
Put plainly: Inhibition of full length human soluble epoxide hydrolase (1 to 555 residues) expressed in Escherichia coli BL21(DE3) using non-fluorescent PHOME as substrate preincubated for 30 mins followed by substrate addition and measured for 30 mins by fluorescence based assay.

Regarding `O=C(CCc1ccc(OCc2ccncc2)cc1)NCCc1ccc(F)cc1`, the IC50 in assay [1] is > 30 µM; in assay [2], 0.8 µM.
In the same order, the values of `O=C(Cc1ccc(Oc2nc3ccccc3s2)cc1F)NCCc1ccccc1F` are 3.8 µM and 0.6 µM.
On to `O=C(Cc1ccc(Oc2ccccc2)cc1)NCCc1ccc(F)cc1`, for which the IC50 in assay [2] is 0.9 µM.
In the case of `O=C(Cc1ccc(Oc2nc3ccc(F)cc3s2)cc1F)NCCc1ccc(F)cc1`, the results for the IC50 in assay [1] and in assay [2] were > 30 µM and 27.5 µM, respectively.
Taken in the same sequence, the figures for `O=C(Cc1ccc(Oc2nc3cc(C(F)(F)F)ccc3s2)cc1F)NCCc1ccc(F)cc1` were > 30 µM and 1.7 µM.
In the same order, the values of `O=C(Cc1ccc(Oc2nc3ccccc3s2)cc1)NCCc1ccc(F)cc1` are 0.24 µM and 0.13 µM.
In the same order, the values of `O=C(Cc1ccc(Oc2nc3ccc(C(F)(F)F)cc3s2)cc1F)NCCc1ccc(F)cc1` are > 30 µM and 20.1 µM.
For `Fc1ccc(CCNCc2ccc(Oc3ccccc3)cc2)cc1`, the IC50 stood at 0.2 µM in assay [1] and 3.6 µM in assay [2].
Molecule `O=C(Cc1ccc(Oc2ccccc2)cc1)NCCc1ccc(C(F)(F)F)cc1` yielded an IC50 in assay [2] of 0.5 µM.
For the molecule `O=C(Cc1ccc(Oc2nc3ccccc3s2)cc1F)NCc1c[nH]c2cc(F)ccc12`, the half-maximal inhibitory concentration (IC50) came to 0.9 µM in assay [1] and 5.6 µM in assay [2].
Taken in the same sequence, the figures for `O=C(Cc1ccc(Oc2nc3cc(F)ccc3s2)cc1F)NCCc1ccc(F)cc1` were > 30 µM and 22.5 µM.
In the same order, the values of `Cc1ccc(CCNC(=O)Cc2ccc(Oc3ccccc3)cc2)cc1` are > 30 µM and 1.1 µM.
In turn, `O=C(Cc1ccc(Oc2ccccc2)cc1)NCCc1ccc(Cl)cc1` showed a 50% inhibitory concentration (IC50) in assay [2] of 1.8 µM.
With `COC(=O)c1ccc(CNC(=O)Cc2ccc(Oc3nc4ccccc4s3)cc2F)cc1`, the concentration for half-maximal inhibition (IC50) in assay [1] was > 30 µM; in assay [2] it was 0.1 µM.
In assay [2], `O=C(Cc1ccc(Oc2ccccc2)cc1)NCCc1ccc(OC(F)(F)F)cc1` had an IC50 of 0.5 µM.
Same read-out and setting: the figure for `O=C(Cc1ccc(Oc2nc3ccccc3s2)cc1F)NCCc1cccc(F)c1` is 0.4 µM.

The values above are taken from ChEMBL document CHEMBL4342480, “Design of Dual Inhibitors of Soluble Epoxide Hydrolase and LTA4 Hydrolase” (ACS Med Chem Lett, 2020).
